Key:
[1] = molecular target: T1, R1162X-CFTR (Homo sapiens, UniProt P13569); assay: Short-circuit current in FRT cells expressing R1162X-CFTR; type: cell-based; conditions: 5 µM VX-770, 20 µM ASP-11, 3 µM VX-809 overnight
T1 construct: expressed in transfected cells; host or cells: Fischer rat thyroid (FRT) cells; gift from Drs; Andras Rab and Jeong Hong (Emory University)
Protocol: (§1) As shown in Fig. 1C and summarized in Fig. 2, ASP-11 acted in synergy with VX-770 to increase chloride current in FRT cells expressing the NBD2 mutations I1234del- and Q1313X-CFTR by ~3–9-fold compared to VX-770. I1234del- and Q1313X-CFTR-expressing cells were also treated with VX-809 for 24 hours (to consider the effect of available CFTR therapeutics) with 2–3-fold greater currents observed.
(§2) Figure 2 Summary of short-circuit current responses to modulators for CFTR mutants in transfected FRT cells. Responses to indicated CFTR mutants with 20 μM forskolin, 5 µM VX-770, 20 µM ASP-11 (with or without 3 µM VX-809 overnight). For reference, data shown for cells expressing wild type CFTR. Mean ± S.E.M., n = 3.
(§3) Short-circuit current was measured on cells cultured on Snapwell clear permeable supports (Corning) as described[10],[11]. Hemichambers were connected to a DVC-1000 voltage clamp (World Precision Instruments Inc., Sarasota, FL) via Ag/AgCl electrodes and 3 M KCl agar bridges for recording of the short-circuit current. For human airway epithelial cells, symmetrical HCO3^−-buffered solutions (in mM: 120 NaCl, 5 KCl, 1 MgCl2, 1 CaCl2, 5 Hepes, 25 NaHCO3, 10 glucose, pH 7.4) for basolateral and apical side were used. For FRT cells, the basolateral membrane was permeabilized with 250 μg/ml amphotericin B, and experiments were done with a chloride gradient using a HCO3^−-buffered solutions (Basolateral (mM): 120 NaCl, 5 KCl, 1 MgCl2, 1 CaCl2, 5 Hepes, 25 NaHCO3, 10 glucose, pH 7.4; apical (mM): 60 NaCl, 60 mM sodium gluconate, 5 KCl, 1 MgCl2, 1 CaCl2, 5 Hepes, 25 NaHCO3, 10 glucose, pH 7.4). All cells were equilibrated with 95% O2, 5% CO2 and maintained at 37 °C during experiments.

[2] = molecular target: T2, S492F-CFTR (Homo sapiens, UniProt P13569, S492F); assay: Short-circuit current in FRT cells expressing S492F-CFTR; type: cell-based; conditions: 20 µM forskolin, 5 µM VX-770, 20 µM ASP-11, 3 µM VX-809 for 18–24 h
T2 construct: expressed in transfected cells; host or cells: Fischer rat thyroid (FRT) cells; gift from Drs; Andras Rab and Jeong Hong (Emory University)
Protocol: (§4) Figure 1 Co-potentiator ASP-11 activity in minimal function CFTR mutants in transfected FRT cells. (A) Structure of ASP-11. (B) Location of minimal function CFTR mutants studied herein. (C) Representative short-circuit current data in FRT cells expressing I1234del-CFTR, Q1313X-CFTR and S492F-CFTR in response to 20 µM forskolin (fsk), 5 µM VX-770, 20 µM ASP-11 and 10 μM CFTRinh-172. As indicated, cells were treated with 3 µM VX-809 for 18–24 h prior to measurements. (n = 3) (D). Representative short-circuit current data in FRT cells expressing predicted W1282X-CFTR read-through products W1282L-CFTR, W1282R-CFTR and W1282C-CFTR (without and with VX-809 pretreatment) (n = 3). MSD, membrane spanning domain; NBD, nucleotide binding domain; R, regulatory domain.
as §1
as §3, with “All cells were equilibrated with 95% O2, 5% CO2 and maintained at 37 °C during experiments.” left out

[3] = molecular target: T3, W1282C-CFTR (Homo sapiens, UniProt P13569, W1282C); assay: Short-circuit current in FRT cells expressing W1282C-CFTR; type: cell-based; conditions: 20 µM forskolin, 5 µM VX-770, 20 µM ASP-11
T3 construct: introduced into full-length CFTR cDNA in the vector pcDNA3.1/Zeo (+); expressed in transfected cells
Protocol: as §4
(§5) Compounds that promote read-through of PTCs to generate full-length CFTR have shown limited efficacy in cell culture studies[15]–[17]. Though the read-through drug ataluren (PTC124) was ineffective in clinical trials, newer compounds are in development. We investigated the ability of ASP-11 to activate chloride current in predicted W1282X-CFTR read-through products. […] FRT cell lines were generated that stably expressing W1282L-, W1282C- and W1282R-CFTR.
(§6) Short-circuit current was measured on cells cultured on Snapwell clear permeable supports (Corning) as described[10],[11]. […]

[4] = molecular target: T4, W1282L-CFTR (Homo sapiens, UniProt P13569, W1282L); assay: Short-circuit current in FRT cells expressing W1282L-CFTR; type: cell-based; conditions: 20 µM forskolin, 5 µM VX-770, 20 µM ASP-11
T4 construct: introduced into full-length CFTR cDNA in the vector pcDNA3.1/Zeo (+); expressed in transfected cells
Protocol: as §4, §5, §6

[5] = molecular target: T5, N1303K-CFTR (Homo sapiens, UniProt P13569, N1303K); set-up: method as in PMID 27895116, PMID 29903467; conditions: transfected FRT cells expressing N1303K-CFTR; cited from earlier work
T5 construct: expressed in transfected cells

[6] = molecular target: T6, M1101K-CFTR (Homo sapiens, UniProt P13569, M1101K); assay: Short-circuit current in FRT cells expressing M1101K-CFTR; type: cell-based; conditions: 20 μM forskolin, 5 µM VX-770, 20 µM ASP-11
T6 construct: expressed in transfected cells; host or cells: Fischer rat thyroid (FRT) cells; gift from Drs; Andras Rab and Jeong Hong (Emory University)
Protocol: as §1, §2
Short-circuit current was measured on cells cultured on Snapwell clear permeable supports (Corning) as described[10],[11]. Hemichambers were connected to a DVC-1000 voltage clamp (World Precision Instruments Inc., Sarasota, FL) via Ag/AgCl electrodes and 3 M KCl agar bridges for recording of the short-circuit current. For human airway epithelial cells, symmetrical HCO3^−-buffered solutions (in mM: 120 NaCl, 5 KCl, 1 MgCl2, 1 CaCl2, 5 Hepes, 25 NaHCO3, 10 glucose, pH 7.4) for basolateral and apical side were used. […]

[7] = tested on: G551D-CFTR; set-up: method as in PMID 29903467; conditions: previously showed; cited from earlier work
[8] = molecular target: T7, W1282X-CFTR (Homo sapiens, UniProt P13569); set-up: method as in PMID 27895116, PMID 29903467; conditions: transfected FRT cells expressing CFTR1281 (truncation product of W1282X-CFTR); cited from earlier work
T7 construct: expressed in transfected cells

[9] = molecular target: T7, W1282X-CFTR; assay: Structure-activity testing of analogs in FRT cells expressing W1282X-CFTR; type: cell-based
Protocol: To establish structure-activity relationships, 240 commercially available piperidinepyridoindole analogs and 160 pyrazoloquinoline analogs were tested in FRT cells expressing W1282X-CFTR. In general, the methoxy substituent on the 4-position (R^3) on the pyridoindole ring increased potency (compare A01 vs A534). N-methylation on the pyridoindole ring abolished activity (compare A534 vs A600). For substituent R^1 on the piperidine ring, substituted benzyl gave greatest activity (A061 and A662). Other R^1 substituents, including sulfonamide (A145), alkyl (A764) and carbocyclic (A714), reduced activity. Changing the benzylic carbon from methylene (CH2) to ketone (C=O) abolished activity (A815, A350 and A956).
For R^3, pyridine (D003), benzyl (D035) and substituted methyl-pyrazole (D086) abolished activity. […] The D123 pyrazoloquinoline with R^3 substituted with thiophene-quinoline heterocycle gave the best potency.

T7 sequence (P13569 1-1281 limits assumed): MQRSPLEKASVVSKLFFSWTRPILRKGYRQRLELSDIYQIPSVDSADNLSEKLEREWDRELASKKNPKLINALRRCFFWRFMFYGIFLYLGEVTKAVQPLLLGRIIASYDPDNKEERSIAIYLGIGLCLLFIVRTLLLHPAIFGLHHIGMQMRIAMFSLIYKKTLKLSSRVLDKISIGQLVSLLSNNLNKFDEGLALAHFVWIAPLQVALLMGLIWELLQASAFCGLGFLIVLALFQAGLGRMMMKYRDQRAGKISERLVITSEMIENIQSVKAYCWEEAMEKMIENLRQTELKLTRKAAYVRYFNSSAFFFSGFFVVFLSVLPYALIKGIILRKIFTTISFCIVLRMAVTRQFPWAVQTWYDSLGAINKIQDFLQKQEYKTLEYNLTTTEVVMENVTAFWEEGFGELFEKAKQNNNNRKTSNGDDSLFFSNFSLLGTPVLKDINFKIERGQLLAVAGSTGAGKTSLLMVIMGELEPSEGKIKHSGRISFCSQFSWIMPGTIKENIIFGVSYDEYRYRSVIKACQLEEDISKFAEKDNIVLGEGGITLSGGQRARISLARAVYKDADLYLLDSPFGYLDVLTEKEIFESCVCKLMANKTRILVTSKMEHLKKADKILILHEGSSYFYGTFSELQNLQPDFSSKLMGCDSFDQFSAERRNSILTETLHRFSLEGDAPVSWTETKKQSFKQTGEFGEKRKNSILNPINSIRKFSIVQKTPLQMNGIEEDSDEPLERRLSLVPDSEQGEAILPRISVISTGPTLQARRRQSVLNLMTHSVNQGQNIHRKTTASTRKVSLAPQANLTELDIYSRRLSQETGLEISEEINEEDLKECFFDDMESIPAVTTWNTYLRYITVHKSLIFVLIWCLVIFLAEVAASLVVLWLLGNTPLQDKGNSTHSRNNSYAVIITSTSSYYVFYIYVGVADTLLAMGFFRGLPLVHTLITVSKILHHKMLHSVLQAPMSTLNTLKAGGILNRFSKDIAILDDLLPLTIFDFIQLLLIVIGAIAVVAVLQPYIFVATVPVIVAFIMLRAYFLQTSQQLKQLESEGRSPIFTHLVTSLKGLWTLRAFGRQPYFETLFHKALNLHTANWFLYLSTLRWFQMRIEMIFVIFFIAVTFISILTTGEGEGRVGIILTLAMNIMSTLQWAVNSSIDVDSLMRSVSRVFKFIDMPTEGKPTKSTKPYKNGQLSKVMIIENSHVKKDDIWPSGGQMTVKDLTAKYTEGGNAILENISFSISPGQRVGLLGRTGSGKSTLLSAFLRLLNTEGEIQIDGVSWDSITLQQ
T4 sequence (P13569 whole entry W1282L): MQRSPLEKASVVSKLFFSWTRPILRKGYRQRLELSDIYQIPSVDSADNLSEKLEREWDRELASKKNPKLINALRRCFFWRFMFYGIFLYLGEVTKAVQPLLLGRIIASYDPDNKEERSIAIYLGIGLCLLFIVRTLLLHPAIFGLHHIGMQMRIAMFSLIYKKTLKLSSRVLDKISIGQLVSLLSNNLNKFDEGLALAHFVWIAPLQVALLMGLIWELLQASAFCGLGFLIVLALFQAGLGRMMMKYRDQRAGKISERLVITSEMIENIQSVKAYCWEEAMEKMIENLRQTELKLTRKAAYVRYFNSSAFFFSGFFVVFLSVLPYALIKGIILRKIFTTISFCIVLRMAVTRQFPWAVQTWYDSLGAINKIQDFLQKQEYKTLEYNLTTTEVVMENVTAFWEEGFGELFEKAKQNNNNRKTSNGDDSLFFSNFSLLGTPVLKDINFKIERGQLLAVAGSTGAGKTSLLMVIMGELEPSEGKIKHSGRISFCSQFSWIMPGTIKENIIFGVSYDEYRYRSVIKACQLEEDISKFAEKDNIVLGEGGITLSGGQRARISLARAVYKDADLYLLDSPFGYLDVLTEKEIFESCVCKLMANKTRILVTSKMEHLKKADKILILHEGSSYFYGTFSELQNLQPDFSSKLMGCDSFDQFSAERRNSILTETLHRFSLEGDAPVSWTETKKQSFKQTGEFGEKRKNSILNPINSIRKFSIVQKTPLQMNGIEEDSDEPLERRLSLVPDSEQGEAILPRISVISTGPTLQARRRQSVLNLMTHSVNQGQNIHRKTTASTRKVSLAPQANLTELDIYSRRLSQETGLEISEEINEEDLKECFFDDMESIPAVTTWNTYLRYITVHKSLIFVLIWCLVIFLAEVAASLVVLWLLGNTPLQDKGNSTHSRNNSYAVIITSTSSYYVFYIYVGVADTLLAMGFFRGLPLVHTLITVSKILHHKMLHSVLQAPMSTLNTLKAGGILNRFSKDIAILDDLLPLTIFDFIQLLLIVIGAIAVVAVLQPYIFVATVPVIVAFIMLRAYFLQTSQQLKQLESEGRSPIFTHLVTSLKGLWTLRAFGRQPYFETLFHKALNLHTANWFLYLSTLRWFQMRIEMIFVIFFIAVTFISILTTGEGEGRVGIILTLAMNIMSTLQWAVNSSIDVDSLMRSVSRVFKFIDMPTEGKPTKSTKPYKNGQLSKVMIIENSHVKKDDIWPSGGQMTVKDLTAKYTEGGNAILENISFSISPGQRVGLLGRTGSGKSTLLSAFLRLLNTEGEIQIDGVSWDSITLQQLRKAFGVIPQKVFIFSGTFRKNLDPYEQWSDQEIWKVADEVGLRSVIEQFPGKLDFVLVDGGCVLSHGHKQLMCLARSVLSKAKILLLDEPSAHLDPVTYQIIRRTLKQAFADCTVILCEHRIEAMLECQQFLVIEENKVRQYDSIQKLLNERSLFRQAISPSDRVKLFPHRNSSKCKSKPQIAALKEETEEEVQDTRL
T3 sequence (P13569 whole entry W1282C): as the sequence (P13569 whole entry W1282L) above, with L1282C counted along it
T1 sequence (P13569 1-1161 limits assumed): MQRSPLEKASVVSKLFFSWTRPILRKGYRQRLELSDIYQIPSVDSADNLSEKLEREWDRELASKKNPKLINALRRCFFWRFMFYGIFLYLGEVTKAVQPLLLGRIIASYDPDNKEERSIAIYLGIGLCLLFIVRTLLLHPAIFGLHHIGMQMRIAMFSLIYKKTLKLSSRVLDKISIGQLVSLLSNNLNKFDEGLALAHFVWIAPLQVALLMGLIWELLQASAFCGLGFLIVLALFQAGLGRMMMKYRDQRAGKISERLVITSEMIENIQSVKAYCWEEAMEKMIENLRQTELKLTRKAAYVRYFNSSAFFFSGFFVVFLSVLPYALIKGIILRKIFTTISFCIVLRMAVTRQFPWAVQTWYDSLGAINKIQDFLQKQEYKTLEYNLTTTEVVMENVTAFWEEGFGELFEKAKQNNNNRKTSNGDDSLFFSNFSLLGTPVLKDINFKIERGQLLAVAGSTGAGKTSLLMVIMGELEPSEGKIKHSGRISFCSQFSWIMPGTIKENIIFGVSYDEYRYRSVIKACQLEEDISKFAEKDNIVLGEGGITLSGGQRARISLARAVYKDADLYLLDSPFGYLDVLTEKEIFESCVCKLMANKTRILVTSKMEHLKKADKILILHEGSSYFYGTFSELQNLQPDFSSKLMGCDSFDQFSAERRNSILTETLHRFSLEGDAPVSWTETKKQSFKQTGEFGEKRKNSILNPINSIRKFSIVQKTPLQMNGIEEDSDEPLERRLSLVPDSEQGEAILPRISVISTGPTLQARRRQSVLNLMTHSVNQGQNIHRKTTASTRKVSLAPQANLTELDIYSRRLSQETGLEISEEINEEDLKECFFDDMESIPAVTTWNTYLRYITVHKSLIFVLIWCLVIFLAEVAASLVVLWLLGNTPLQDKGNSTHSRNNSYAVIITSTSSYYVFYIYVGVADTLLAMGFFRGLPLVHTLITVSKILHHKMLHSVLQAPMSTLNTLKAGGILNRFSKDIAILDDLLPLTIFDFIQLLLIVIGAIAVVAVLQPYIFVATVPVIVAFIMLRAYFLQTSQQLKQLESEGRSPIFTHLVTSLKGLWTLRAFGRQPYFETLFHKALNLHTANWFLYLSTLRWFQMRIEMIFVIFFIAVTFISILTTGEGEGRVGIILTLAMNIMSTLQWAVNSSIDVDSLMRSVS
T2 sequence (P13569 whole entry S492F): as the sequence (P13569 whole entry W1282L) above, with S492F, L1282W counted along it
T5 sequence (P13569 whole entry N1303K): as the sequence (P13569 whole entry W1282L) above, with L1282W, N1303K counted along it
T6 sequence (P13569 whole entry M1101K): as the sequence (P13569 whole entry W1282L) above, with M1101K, L1282W counted along it

Row | short-circuit current response to modulator [1] | short-circuit current response to modulator [2] | effect on short-circuit current after forskolin [3] | effect on short-circuit current after forskolin [4] | ASP-11 effect on short-circuit current [6] | Structure (SMILES) | increase in chloride current over that produced by a high concentration of VX-770 [5] | activation of G551D-CFTR [7] | increase in chloride current over that produced by a high concentration of VX-770 [8] | Relative Vmax (%) ([9]; Table 1, 100% Vmax corresponds to 20 μM ASP-11) | EC50 ([9]; Table 1, piperidine-pyridoindole analogs)
1 | did not respond | no response | significant further effects | little additional |  | CC(C)(C)c1cc(C(C)(C)C)c(NC(=O)c2c[nH]c3ccccc3c2=O)cc1O [VX-770, ivacaftor] |  |  |  |  | 
2 | did not respond | no response | significant further effects | little additional | absence of ASP-11 effect | CCCCn1cc(S(=O)(=O)Nc2ccc(CC)cc2)c2cccnc21 [ASP-11] | ~ 8 fold | activates G551D-CFTR | ~ 8 fold |  | 
3 |  |  |  |  |  | COc1ccc2[nH]c3c(c2c1)CCNC31CCN(Cc2ccc(F)cc2F)CC1 [Compound A061] |  |  |  | 100% | 2000 nM
